Measurements reported in patent publication US20190314382A1, “COMPOUNDS AND PHARMACEUTICAL COMPOSITIONS THEREOF FOR THE TREATMENT OF INFLAMMATORY DISEASES” (Galapagos NV, priority 2016, published 2019).

Legend:
Assay type in all cases: in vivo, human
Details in all cases: observed case
[1] = system: IFNγ; experiment: Biomarker study in RA subjects: serum IFNγ, Luminex 18-Plex
Method: (§1) Double-blind, placebo-controlled add on study in subjects with moderately to severely active RA who have an inadequate response to MTX (oral or parenteral).
(§2) 595 subjects randomized to one of 6 dose regimens of Compound 1 (dosed as a [Compound 1:HCl:3H2O]) (3 dose levels administered either once or twice daily) or placebo on top of each subject's stable dose of MTX.
(§3) Compound 1 (dosed as a [Compound 1:HCl:3H2O]) is dosed for twelve weeks once daily (q.d.) (50 mg, 100 mg or 200 mg) or twice daily (b.i.d.) (25 mg, 50 mg or 100 mg); or placebo.
(§4) 18 parameters from human serum samples (GM-CSF, IFNγ, IL-1β, IL-2, IL-4, IL-5, IL-6, IL-7, IL-8, IL-10, IL-12 (p70), IL-13, IL-17A, IL-21, IL-23, MIP-1α, MIP-1β and TNF-α) are analyzed on a Luminex Plateform (BioPlex® L200) using a Luminex 18-Plex Kit (Millipore: HSTCMAG-28SK).
(§5) Coupled beads react with the sample containing the biomarker of interest. […] Phycoerythrin (PE) serves as a fluorescent indicator.
(§6) The concentration of bead bound analyte is proportional to the MFI (Median Fluorescent Intensity) and back-calculated from interpolation with the calibration curve fitted with a 4 or 5 parameters logistic (4PL or 5PL) regression model selected during method pre-validation.
(§7) Treatment effect was assessed using an ANCOVA model on the changes from baseline, with factors: treatment, baseline value of the PD marker, geographical region and previous use of biologics.

[2] = system: IL-10; experiment: Biomarker study in RA subjects: serum IL-10, Luminex 18-Plex
Method: as §1, §2, §3, §4, §5, §6, §7

[3] = system: IL-17A; experiment: Biomarker study in RA subjects: serum IL-17A, Luminex 18-Plex
Method: as §1, §2, §3, §4, §5, §6, §7

[4] = system: IL-23; experiment: Biomarker study in RA subjects: serum IL-23, Luminex 18-Plex
Method: as §1, §2, §3, §4, §5, §6, §7

[5] = system: MIP-1α; experiment: Biomarker study in RA subjects: serum MIP-1α, Luminex 18-Plex
Method: as §1, §2, §3, §4, §5, §6, §7

[6] = 50 mg bid, Week 4, N = 73, RA subjects on MTX
[7] = 50 mg bid, Week 12, N = 73, RA subjects on MTX
[8] = 100 mg bid, Week 4, N = 79, RA subjects on MTX
[9] = 100 mg bid, Week 12, N = 79, RA subjects on MTX
[10] = 100 mg qd, Week 4, N = 68, RA subjects on MTX
[11] = 100 mg qd, Week 12, N = 68, RA subjects on MTX
[12] = 200 mg qd, Week 4, N = 75, RA subjects on MTX
[13] = 200 mg qd, Week 12, N = 75, RA subjects on MTX

## O=C(Nc1nc2cccc(-c3ccc(CN4CCS(=O)(=O)CC4)cc3)n2n1)C1CC1 [Compound 1, cyclopropanecarboxylic acid {5-[4-(1,1-dioxo-thiomorpholin-4-ylmethyl)-phenyl]-[1,2,4]triazolo[1,5-a]pyridin-2yl}-amide]
[1]; [6]
  IFNγ Mean change from baseline at Week 4: 1.6 pg/mL
[1]; [7]
  IFNγ Mean change from baseline at Week 12: -3.4 pg/mL
[1]; [8]
  IFNγ Mean change from baseline at Week 4: -3.3 pg/mL
[1]; [9]
  IFNγ Mean change from baseline at Week 12: -5.8 pg/mL
[1]; [10]
  IFNγ Mean change from baseline at Week 4: -3.8 pg/mL
[1]; [11]
  IFNγ Mean change from baseline at Week 12: -6.6 pg/mL
[1]; [12]
  IFNγ Mean change from baseline at Week 4: 0.5 pg/mL
[1]; [13]
  IFNγ Mean change from baseline at Week 12: -3.1 pg/mL
[2]; [6]
  IL-10 Mean change from baseline at Week 4: -2.1 pg/mL
[2]; [7]
  IL-10 Mean change from baseline at Week 12: -3.7 pg/mL
[2]; [8]
  IL-10 Mean change from baseline at Week 4: -3.3 pg/mL
[2]; [9]
  IL-10 Mean change from baseline at Week 12: -4.2 pg/mL
[2]; [10]
  IL-10 Mean change from baseline at Week 4: 0.1 pg/mL
[2]; [11]
  IL-10 Mean change from baseline at Week 12: -0.1 pg/mL
[2]; [12]
  IL-10 Mean change from baseline at Week 4: -0.5 pg/mL
[2]; [13]
  IL-10 Mean change from baseline at Week 12: -1.5 pg/mL
[3]; [6]
  IL-17α Mean change from baseline at Week 4: -4.4 pg/mL
[3]; [7]
  IL-17α Mean change from baseline at Week 12: -3.3 pg/mL
[3]; [8]
  IL-17α Mean change from baseline at Week 4: 3.9 pg/mL
[3]; [9]
  IL-17α Mean change from baseline at Week 12: -1.9 pg/mL
[3]; [10]
  IL-17α Mean change from baseline at Week 4: -5.9 pg/mL
[3]; [11]
  IL-17α Mean change from baseline at Week 12: -7.4 pg/mL
[3]; [12]
  IL-17α Mean change from baseline at Week 4: -1.6 pg/mL
[3]; [13]
  IL-17α Mean change from baseline at Week 12: -0.9 pg/mL
[4]; [6]
  IL-23 Mean change from baseline at Week 4: -772.1 pg/mL
[4]; [7]
  IL-23 Mean change from baseline at Week 12: -888.7 pg/mL
[4]; [8]
  IL-23 Mean change from baseline at Week 4: -273.6 pg/mL
[4]; [9]
  IL-23 Mean change from baseline at Week 12: -831.6 pg/mL
[4]; [10]
  IL-23 Mean change from baseline at Week 4: 38.3 pg/mL
[4]; [11]
  IL-23 Mean change from baseline at Week 12: -337.9 pg/mL
[4]; [12]
  IL-23 Mean change from baseline at Week 4: -435.8 pg/mL
[4]; [13]
  IL-23 Mean change from baseline at Week 12: -949.7 pg/mL
[5]; [6]
  MIP-1α Mean change from baseline at Week 4: 1.0 pg/mL
[5]; [7]
  MIP-1α Mean change from baseline at Week 12: 8.5 pg/mL
[5]; [8]
  MIP-1α Mean change from baseline at Week 4: -3.1 pg/mL
[5]; [9]
  MIP-1α Mean change from baseline at Week 12: -5.2 pg/mL
[5]; [10]
  MIP-1α Mean change from baseline at Week 4: 7.0 pg/mL
[5]; [11]
  MIP-1α Mean change from baseline at Week 12: 9.1 pg/mL
[5]; [12]
  MIP-1α Mean change from baseline at Week 4: -1.6 pg/mL
[5]; [13]
  MIP-1α Mean change from baseline at Week 12: -2.6 pg/mL
